In US7309713B2, “Use of the non-opiate analgesic drug flupirtine for the treatment of overactive bladder and associated diseases including urge incontinence, urinary flow problems as a result of prostate hyperplasia and irritable bowel syndrome” (priority 2005, dated 2007):
Values joined by “and” are separate entries in the source; they are usually repeats but may differ in a detail not shown here. Identical values can stand only once. “Also recorded” adds a separate entry of the source. Counter-ions that a name gives are not always drawn.

Legend:
[1] = tested on: analgesic effect in rodents; settings: p.o.; cited from earlier work
[2] = tested on: Randall-Selitto test in rats; settings: p.o.; cited from earlier work
[3] = tested on: mean arterial blood pressure; experiment: mean arterial blood pressure recorded in the urethane anaesthetised rats of the bladder model
Experimental: The body temperature was maintained at 37° C. by means of an heated small operating table and 2 red light heating lamps. The left carotid artery was prepared and a catheter for continuous blood pressure measurement was inserted and connected to a Statham pressure transducer (Model P23 Db) and connected with a computer-controlled physiological recorder (PMS PR 800, Mumed Systems Ltd London, GB).
For intraduodenal drug administration a polyethylene catheter was inserted into the upper part of the duodenum, about 5 cm downwards from the pylorus and fixed with a purse-string suture. Bilateral ureters were ligated proximally to the bladder to prevent the bladder filling with urine. Urine of the kidneys was drained onto cotton swabs within the abdomen. The urinary bladder was catheterised via the urethra by use of PE 50 polyethylene tubing filled with physiological saline and secured in place by a ligature at the lower part of the urethra. Using a “T”-connector, the bladder catheter was connected to a Statham pressure transducer (Model P23 Db) connected with the physiological recorder (PMS PR 800) to measure intravesicular pressure and to a Infusion pump (TSE, FRG). Continuous recordings of intravesicular pressure and arterial blood pressure were captured onto a 4 channel Linearcorder WR3310 (Western Graphtec, Inc., USA). The experiment was started infusing (0.05 ml/min) the bladder with warmed saline (37-38° C.) to evoke rhythmic bladder contractions by means an infusion pump up to a maximal volume of 1.0 ml. The infusion is stopped after reaching the final volume or with the start of rhythmic bladder contractions.

[4] = tested on: volume-induced rhythmic urinary bladder contractions; experiment: volume-induced rhythmic urinary bladder contractions in urethane anaesthetised rats (rat model of overactive bladder); format: in vivo, Sprague Dawley rat; settings: for presence/absence of bladder contractions (block grade), individual animal: 55 min period, Table 3; for duration of block, individual animal / number of episodes of block per animal / decrease in frequency, individual animal: individual animals; for mean voiding frequency decreased by: decrease
From the text: In the search for new drugs compounds are of interest which affect the central nervous system circuits involved in micturation as well as the peripheral nerves resulting in a decrease in the frequency of the voiding reflex without any effect on bladder contractility. […] The method utilises spontaneous, volume-induced contractions of the urinary bladder in anaesthetised rats and was developed and first described by Dray (J. Pharmacol. Meth. 13:157-165, 1985) to assess the central activity of substances with opioid properties on bladder function. As this model clearly mimics the interplay between smooth muscle function and neuronal control thereof, this model can be also used to predict drug effects in a different disease, i.e. irritable bowl syndrome (IBS).
Aim of the study: To characterise the effects of the analgesic flupirtine maleate on the bladder function we used the model volume-induced contractions of urinary bladder in urethane anaesthetised rats. […] The compounds at the dose range 0.1-10 mg/kg were intraduodenally administered to anaesthetised rats. The intraduodenal route was chosen to mimic the oral route and to avoid the use of solvents necessary for intravenous administration.
• Species: Sprague Dawley rat • Sex: Female • Body weight: 200-270 g • Breeder: Charles River, Sulzfeld • Food/Tap water: pellets, ssniff M/R15, ad libitum, Spezialdiäten GmbH, Soest/Wesffalen, FRG • Conditions in animal housing: Rats were kept conventionally in groups of 6 in macrolon cages No. 4. • Room temperature: 20-24° C. • Relative humidity: 40-70%, deviations from the maximum range caused during cleaning procedure are possible • Light/Dark rhythm: 12/12 h light/dark cycle, light on at 6:00 a.m.
The food was withdrawn 16 hours before intraduodenal drug administration. Tap water was available ad libitum.
Flupirtine maleate or oxybutynin hydrochloride were suspended in hydroxyethylcellulose (0.5%) in demineralised water. The substances were ground in a mortar with pistil. The suspensions were placed on a magnetic stirrer before and during dosing procedures. The substances were freshly prepared in the morning and applied intraduodenally in a volume of 0.4 ml/100 g body weight. Control rats received hydroxyethylcellulose (0.5%) i.d.
The filling material, consisting of small globules, was ground in a mortar with pistil. Thereafter the grounded material was suspended in hydroxyethylcellulose (0.5%) in demineralised water. The suspensions were placed on a magnetic stirrer before and during dosing procedures for 10 minutes. The suspensions were freshly prepared in the morning and applied intraduodenally in a volume of 0.4 ml/100 g body weight to rats. Control rats received the same amount of hydroxyethylcellulose (0.5%) i.d.
The continuous registration lasted 1 hr. […] The frequency was evaluated for 10 min before (baseline) and within the observation period in intervals of 10 minutes starting 5, 20, 35 and 50 min after drug administration. For intraduodenal dosing, drugs were administered via a duodenal polyethylene tube to animals in aqueous suspension of 0.5% hydroxyethylcellulose.

Haffner test in mice = settings: p.o.; cited from earlier work
[5] = tested on: bladder instability after partial ligation of the proximal urethra; experiment: bladder hyperactivity/detrusor instability induced by chronic partial outflow obstruction; format: in vivo, rats; settings: cystometry, 6 weeks after partial ligation
From the text: A different model of bladder hyperactivity/detrusor instability induced by chronic partial outflow obstruction is also useful to evaluate the efficacy of a compound. Partial obstruction is achieved using partial ligation of the proximal urethra in rats. […] This can be recorded using cystometry. This model more closely resembles the situation during prostate hyperplasia and other diseases resulting in outflow obstruction. Flupirtine is also active in this model.

[6] = tested on: isolated organ strips of rat bladder; experiment: isolated organ strips of rat bladder contracted with potassium chloride (40 mM); settings: read-out: IC50, concentration needed to counteract the contractile response of potassium chloride by 50%, isolated organ bath
Experimental: Flupirtine was also tested in an in vitro model of detrusor muscle activity. In this model, isolated organ strips of rat bladder was introduced in an isolated organ bath system. […] In this model, flupirtine did show some activity, but the concentration needed to relax the bladder strip was rather high. […] Direct effects on the bladder wall may be of limited relevance for the pharmacological effect. Indeed, this is in line with the observation that the contraction force of the detrusor in above mentioned in vivo models was not influenced at doses which clearly had pharmacological effects on micturation frequency.

[7] = 0.1 mg/kg i.d. single dose, group mean
[8] = 1.0 mg/kg i.d. single dose, group mean
[9] = 3.0 mg/kg i.d. single dose, group mean
[10] = 10 mg/kg i.d. single dose, group mean
[11] = 0.1 mg/kg i.d. single dose, group mean, listed as Flupirtine maleate

For `CCOC(=O)Nc1ccc(NCc2ccc(F)cc2)nc1N` [flupirtine maleate, [(2-Amino-6-(4-fluorophenyl)-methyl-amino-3-pyridinyl)-carbamicacid ethylester maleate]], the “doses of first analgesic efficacy” value [1] is given as 25-50 mg/kg p.o, the “ED50, Randall-Selitto test” value [2] is given as 39 mg/kg p.o and the “mean BP, change in percent from base value (Δ %)” value [3, 7] is given as −4.7%. The “mean BP, change in percent from base value (Δ %)” value [3, 8] was −6.9%, the “mean BP, change in percent from base value (Δ %)” value [3, 9] was −12% and the “mean BP Post (30-60 min), mean” value [3, 10] was 79.3-83.3 mm Hg. The “mean arterial blood pressure decreased by” value ([3]; 10 mg/kg i.d., decrease) was 11%, the “block X/n (animals with blockade of bladder contraction)” value (shortened to “block X/n”) ([4]; 0.1 mg/kg i.d. single dose) was 2/3 and the “block, blockade duration (group, min-max)” value (“block, blockade duration” for short) ([4]; 0.1 mg/kg i.d. single dose) was 4 to 8 min. The “amplitude, change in percent from base value (Δ %)” value [4, 7] was −9.0%, the “frequency, change in percent from base value (Δ %)” value [4, 7] was “+3.4%” and the “amplitude, change in percent from base value (Δ %)” value [4, 11] was “No effect”. The “frequency, change in percent from base value (Δ %)” value [4, 11] was “No effect”, the “block X/n” value ([4]; 0.1 mg/kg i.d. single dose, listed as Flupirtine maleate) was 2 out of 3 and the “presence/absence of bladder contractions (block grade), individual animal” value (“presence/absence of bladder contractions” for short) ([4]; 0.1 mg/kg i.d.) was “no block; also recorded: (+) (+ or (+) = contractions abolished during 5-10 min time period)”. The “duration of block, individual animal” value ([4]; 0.1 mg/kg i.d.) was ≤ 4 min and ≤ 8 min, the “number of episodes of block per animal” value ([4]; 0.1 mg/kg i.d.) was 1 and the “duration of block, individual animal” value ([4]; 0.1 mg/kg i.d., listed as Flupirtine maleate) was 4 min and 8 min. For the same compound, the “block X/n” value ([4]; 1.0 mg/kg i.d. single dose) was 2 out of 3 and 2/3, the “block, blockade duration” value ([4]; 1.0 mg/kg i.d. single dose) was 4 to 18 min and the “frequency Post (20-60 min), mean” value [4, 8] was 7.0-7.0 n/10 min. The “frequency, change in percent from base value (Δ %)” value [4, 8] was −8.7%, the “presence/absence of bladder contractions” value ([4]; 1.0 mg/kg i.d.) was “no block; also recorded: + (+ or (+) = contractions abolished during 5-10 min time period); also recorded: (+) (+ or (+) = contractions abolished during 5-10 min time period)” and the “decrease in frequency, individual animal” value ([4]; 1.0 mg/kg i.d.) was 17% and 23% and without influence and frequency by 17% and frequency by 23%. The “duration of block, individual animal” value ([4]; 1.0 mg/kg i.d.) was 4 to 5 min and 16 min, the “number of episodes of block per animal” value ([4]; 1.0 mg/kg i.d.) was 1 and 2 and the “block X/n” value ([4]; 3.0 mg/kg i.d. single dose) was “all three and 3/3”. The “block, blockade duration” value ([4]; 3.0 mg/kg i.d. single dose) was 5 to 14 min, the “amplitude Post (30-60 min), mean” value [4, 9] was 26.3-26.3 mm Hg and the “frequency, change in percent from base value (Δ %)” value [4, 9] was −40%. The “presence/absence of bladder contractions” value ([4]; 3.0 mg/kg i.d.) was “++ (++ = contractions abolished during 10-30 min time period); also recorded: (+) (+ or (+) = contractions abolished during 5-10 min time period); also recorded: + (+ or (+) = contractions abolished during 5-10 min time period)”, the “mean voiding frequency decreased by” value ([4]; 3 mg/kg i.d.) was 40% and the “decrease in frequency, individual animal” value ([4]; 3.0 mg/kg i.d.) was “frequency by 29%; also recorded: by 50%; also recorded: frequency by 41%”. The “duration of block, individual animal” value ([4]; 3.0 mg/kg i.d.) was 14 min and block, 6 min block, starting and ≤ 5 min and 8 min, the “animals with voiding contractions abolished over the whole observation period” value ([4]; 10 mg/kg i.d.) was 1/3 and the “block X/n” value ([4]; 10 mg/kg i.d. single dose) was 3/3. For the same compound, the “block, blockade duration” value ([4]; 10 mg/kg i.d. single dose) was 26 to 56 min, the “amplitude, change in percent from base value (Δ %)” value [4, 10] was −26% and the “frequency, change in percent from base value (Δ %)” value [4, 10] was −57%. For the same compound, the “presence/absence of bladder contractions” value ([4]; 10 mg/kg i.d.) was “++ (++ = contractions abolished during 10-30 min time period); also recorded: +++ (+++ = contractions abolished during 30-60 min time period)”, the “mean voiding frequency decreased by” value ([4]; 10 mg/kg i.d.) was 57% and the “decrease in frequency, individual animal” value ([4]; 10 mg/kg i.d.) was “frequency by 68%; also recorded: in frequency by 87%; also recorded: block decrease in frequency by 57%”. The “duration of block, individual animal” value ([4]; 10 mg/kg i.d.) was 26 min and 29 min and 55 min and 39 min, the “mean pressure peaks of the amplitude diminished/reduced by” value ([4]; 10 mg/kg i.d., reduction) was 26% and the “doses with therapeutic effect in the model volume-induced contractions in urinary bladder” value ([4]; rat, in vivo) was 1-3 mg/kg p.o. The “ED50, analgesic effect in the Haffner test” value (Haffner test in mice) was 28 mg/kg p.o.
With `CCOC(=O)Nc1ccc(NCc2ccc(F)cc2)nc1N` [flupirtine, 2-amino-3-carbethoxyamino-6-(4-fluorobenzylamino)-pyridine] the “activity in the chronic partial outflow obstruction model” value [5] was “active”, the “effect on peripheral blood pressure” value ([3]; summary over the doses tested) was “not cause any effect” and the “fold higher activity in the bladder model than in the analgesia tests” value ([4]; compared with analgesic ED50 values) was 3-10 fold. For the same compound, the “intraduodenal dose at which the first effects became visible” value ([4]; intraduodenal) was 3 mg/kg and the IC50 [6] was 7.5 µM.
